Test results from patent US7361769B2, “Heterocyclyls as selective melanin concentrating hormone receptor antagonists for the treatment of obesity and related disorders” (Schering Corporation, priority 2004, dated 2008).
Where two headings read alike, the source gives them in different places.

Key:
[1] = molecular target: T1, hERG channels (Homo sapiens, UniProt Q12809); assay: Herg-Rb two phase screen (rubidium efflux); format: cell-based; settings: CHO cells expressing hERG, relative to complete block with 10 μM dofetilide; for herg-Rb 1.5 μg/mL (%): test article at 1.5 μg/ml; for herg-Rb 5 μg/mL (%): test article at 5 μg/ml
T1 construct: expressed in transfected cells
Protocol: Herg-Rb data (μg/mL) (%) was determined by the following two phase screen. The first phase is a cell-handling phase in which cells are loaded with rubidium, drugs are added and efflux initiated by KCl-depolarization. The second phase is measurement of rubidium content in cell supernatants that are collected at the end of the cell-handling phase. CHO cells expressing hERG in a stable manner are used for these studies. Cells are plated into 96-well dishes one day prior to study. After overnight culture, the normal tissue culture medium is removed and cells are loaded with rubidium for 3 hours in a HEPES-buffered physiological saline solution containing 5 mM rubidium chloride in place of potassium chloride. During the final 30 minutes of rubidium loading cells are pre-equilibrated with test articles at 1.5 μg/ml and 5 μg/ml. Cells are then washed with rubidium-free HEPES buffered physiological saline solution containing 5 mM KCl to remove all extracellular rubidium. The final step of the cell handling phase is to depolarize the cells in HEPES buffered physiological saline containing 50 mM KCl. This opens hERG channels and permits efflux of rubidium. Supernatants are collected after 5 minutes and rubidium content is measured using a flame atomic absorbance spectrometer with a robot for sampling from 96-well plates (ICR-8000, Aurora Biomed Inc., Vancouver, British Columbia). In cases where the channel is blocked the amount of rubidium efflux is reduced. Drug effects are calculated based on the difference between wells with no added compound and wells in which there is complete block of hERG channels with a well-known positive standard (10 μM dofetilide).

[2] = molecular target: T2, MCH receptor (Homo sapiens, UniProt Q99705); assay: MCH receptor binding assay ([125I]-MCH, SPA); settings: membranes from CHO cells expressing the MCH receptor
T2 construct: expressed in transfected cells; host or cells: CHO cells (membrane preparation)
Protocol: MCH Receptor Binding Assay:
Membranes from CHO cells expressing the MCH receptor were prepared by lysing cells with 5 mM HEPES for 15 min at 4 C. Cell lysates were centrifuged ([…], 15 min) and the pellet was re-suspended in 5 mM HEPES. For each 96-well plate (Microlite, Dynex Technologies), 1 mg of cell membranes were incubated with 10 mg of wheat germ agglutinin SPA beads (Amersham) for 5 min at 4 C in a volume of 10 ml of binding buffer (25 mM HEPES, 10 mM MGCl2, 10 mM NaCl, 5 mM MnCl2, 0.1% BSA). The membrane/bead mixture was centrifuged (1500×g, 3.5 min), the supernatant was aspirated, and the pellet was resuspended in 10 ml binding buffer. The centrifugation, aspiration and resuspension were then repeated. The membrane/bead mixture (100 μl) was then added to 96-well plates containing 50 μl of 500 pM [^125I]-MCH (NEN) and […] of the appropriate concentration of compound (4× the desired final concentration). Nonspecific binding was determined by including 1 μM MCH in the binding reaction. The binding reaction was incubated at room temperature for 2 h. Plates were then analyzed in a TOPCOUNT microplate scintillation counter (Packard). Data was analyzed and Ki values were determined using GraphPad Prism.

T2 sequence (Q99705 whole entry): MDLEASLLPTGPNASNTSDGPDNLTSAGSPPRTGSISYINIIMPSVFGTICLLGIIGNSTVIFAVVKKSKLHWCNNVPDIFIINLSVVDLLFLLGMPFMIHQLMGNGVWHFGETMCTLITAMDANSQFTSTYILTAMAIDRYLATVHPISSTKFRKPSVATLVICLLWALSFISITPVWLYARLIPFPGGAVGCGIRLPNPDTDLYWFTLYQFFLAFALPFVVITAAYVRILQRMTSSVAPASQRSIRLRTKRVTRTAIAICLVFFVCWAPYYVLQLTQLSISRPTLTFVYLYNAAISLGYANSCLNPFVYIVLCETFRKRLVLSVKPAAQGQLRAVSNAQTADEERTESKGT
T1 sequence (Q12809 whole entry): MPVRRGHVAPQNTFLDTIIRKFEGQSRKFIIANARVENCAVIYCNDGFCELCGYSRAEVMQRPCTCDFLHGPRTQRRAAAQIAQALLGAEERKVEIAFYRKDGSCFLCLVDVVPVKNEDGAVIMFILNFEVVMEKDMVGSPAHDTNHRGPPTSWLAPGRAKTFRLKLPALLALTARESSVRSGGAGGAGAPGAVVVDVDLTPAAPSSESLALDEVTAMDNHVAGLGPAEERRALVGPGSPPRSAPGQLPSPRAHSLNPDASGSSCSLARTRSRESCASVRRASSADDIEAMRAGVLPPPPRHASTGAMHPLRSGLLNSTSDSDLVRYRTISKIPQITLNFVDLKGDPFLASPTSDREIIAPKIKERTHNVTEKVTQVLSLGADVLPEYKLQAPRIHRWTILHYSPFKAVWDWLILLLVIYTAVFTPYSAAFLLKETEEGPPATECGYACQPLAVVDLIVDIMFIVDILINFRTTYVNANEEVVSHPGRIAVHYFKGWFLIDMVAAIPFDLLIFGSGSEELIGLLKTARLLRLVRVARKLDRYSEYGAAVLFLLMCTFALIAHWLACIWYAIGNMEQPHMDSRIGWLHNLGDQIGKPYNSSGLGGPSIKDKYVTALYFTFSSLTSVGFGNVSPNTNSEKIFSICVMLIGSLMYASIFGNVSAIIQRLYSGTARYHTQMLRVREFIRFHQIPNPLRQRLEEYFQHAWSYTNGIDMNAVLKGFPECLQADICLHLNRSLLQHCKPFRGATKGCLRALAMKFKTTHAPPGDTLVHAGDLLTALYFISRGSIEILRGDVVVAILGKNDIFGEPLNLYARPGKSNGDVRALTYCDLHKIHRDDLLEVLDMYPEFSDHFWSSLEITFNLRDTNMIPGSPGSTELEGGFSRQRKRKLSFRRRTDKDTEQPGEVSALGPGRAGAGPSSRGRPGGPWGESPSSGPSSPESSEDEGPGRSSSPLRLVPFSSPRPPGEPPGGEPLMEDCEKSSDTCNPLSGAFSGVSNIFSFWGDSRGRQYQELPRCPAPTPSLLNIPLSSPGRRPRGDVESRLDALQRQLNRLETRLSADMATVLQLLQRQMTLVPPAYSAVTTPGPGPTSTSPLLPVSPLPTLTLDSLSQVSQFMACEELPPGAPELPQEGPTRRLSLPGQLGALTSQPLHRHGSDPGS

Row | Compound | Ki ([2]; read-out: Class (Ki)) | Ki ([2]; read-out: Ki) | herg-Rb 1.5 μg/mL (%) [1] | herg-Rb 5 μg/mL (%) [1]
1 | NCc1ncc([C@@]23C[C@H](N(CCCN4CC[C@H](O)C4)C(=O)Nc4ccc(F)c(C(F)(F)F)c4)C[C@@H]2C3)s1 [Example 14] | > 100 nM | – | – | –
2 | O=C(Nc1ccc(F)c(Cl)c1)N(CCN1CCCC1)C1CC=C(c2ccc(CN3CCCC3)s2)CC1 (centres unmarked) [Example 4] | > 100 nM | – | −1% | 20%
3 | O=C(Nc1ccc(F)c(Cl)c1)N(CCN1CCCC1)C1CC=C(c2ccc(CN3CCC3)s2)CC1 (centres unmarked) [Example 3] | > 100 nM | – | −1% | 15%
4 | CN(C)Cc1ncc(C2=CCC(N(CCN3CCCC3)C(=O)Nc3ccc(F)c(C(F)(F)F)c3)CC2)s1 (centres unmarked) [Example 8] | > 100 nM | – | – | –
5 | O=C(Nc1ccc(F)c(Cl)c1)N(CCN1CCCC1)C1CC=C(c2ccc(CN3CC[C@H](O)C3)s2)CC1 (some centres unmarked) [Example 5] | 30 to 100 nM | – | 0% | 6%
6 | NCc1ccc(C2=CCC(N(CCN3CCCC3)C(=O)Nc3ccc(F)c(Cl)c3)CC2)s1 (centres unmarked) [Example 1] | < 30 nM | 8 nM | 22% | 26%
7 | NCc1cnc(C2=CCC(N(CCN3CCCC3)C(=O)Nc3ccc(F)c(Cl)c3)CC2)s1 (centres unmarked) [Example 11] | < 30 nM | – | 9% | 14%
8 | CNCc1ccc(C2=CCC(N(CCN3CCCC3)C(=O)Nc3ccc(F)c(Cl)c3)CC2)s1 (centres unmarked) [Example 6] | < 30 nM | – | – | –
9 | CN(C)Cc1ncc(C2=CCC(N(CCN3CCCC3)C(=O)Nc3ccc(F)c(Cl)c3)CC2)s1 (centres unmarked) [Example 9] | > 100 nM | – | – | –
10 | NCc1ncc(C2=CCC(N(CCN3CCCC3)C(=O)Nc3ccc(F)c(Cl)c3)CC2)s1 (centres unmarked) [Example 7] | < 30 nM | – | −1% | 10%
11 | NCc1ncc(C2=CCC(N(CCN3CCCC3)C(=O)Nc3ccc(F)c(C(F)(F)F)c3)CC2)s1 (centres unmarked) [Example 10] | < 30 nM | – | 9% | 26%
12 | CN(C)Cc1ccc(C2=CCC(N(CCN3CCCC3)C(=O)Nc3ccc(F)c(Cl)c3)CC2)s1 (centres unmarked) [Example 2] | > 100 nM | – | – | –

Second part, led by results:

Row | Ki ([2]; read-out: Class (Ki)) | Ki ([2]; read-out: Ki) | Compound | herg-Rb 1.5 μg/mL (%) [1] | herg-Rb 5 μg/mL (%) [1]
13 | < 30 nM | – | C[C@@H]1CN(CCCN(C(=O)Nc2cc(Cl)nc(Cl)c2)[C@@H]2CC[C@]3(c4cnc(CN)s4)CC23)[C@@H](C)CN1 (some centres unmarked) [Example 19] | −10% | 3%
14 | > 100 nM | – | NCc1ncc([C@@]23CC[C@H](N(CCCN4CC[C@@H](O)C4)C(=O)Nc4ccc(F)c(C(F)(F)F)c4)[C@@H]2C3)s1 [Example 20] | – | –
15 | < 30 nM | – | C[C@@H]1CN(CCCN(C(=O)Nc2ccc(F)c(C(F)(F)F)c2)[C@@H]2CC[C@]3(c4cnc(CN)s4)CC23)[C@@H](C)CN1 (some centres unmarked) [Example 16] | −11% | −8%
16 | < 30 nM | – | NCc1ncc([C@]23CC[C@@H](N(CCCN4CC[C@@H](O)C4)C(=O)Nc4ccc(F)c(C(F)(F)F)c4)[C@H]2C3)s1 [Example 21] | – | –
17 | 30 to 100 nM | – | NCc1ncc([C@]23CC[C@@H](N(CCCN4CC[C@H](O)C4)C(=O)Nc4ccc(F)c(C(F)(F)F)c4)C2C3)s1 (some centres unmarked) [Example 15] | −4% | −4%
18 | 30 to 100 nM | – | NCc1ncc([C@]23CC[C@@H](N(CCN4CC[C@H](O)C4)C(=O)Nc4ccc(F)c(C(F)(F)F)c4)[C@H]2C3)s1 [Example 13] | 13% | 8%
19 | > 100 nM | – | NCc1ncc([C@]23CC[C@@H](N(CCN4CCCC4)C(=O)Nc4ccc(F)c(C(F)(F)F)c4)[C@H]2C3)s1 [Example 12] | 13% | 16%
20 | < 30 nM | – | NCc1ncc([C@]23CC[C@@H](N(CCCN4CC[C@@H](O)C4)C(=O)Nc4ccc(F)c(C(F)(F)F)c4)C2C3)s1 (some centres unmarked) [Example 18] | −5% | −4%
21 | 30 to 100 nM | – | NCc1ncc([C@]23CC[C@@H](N(CCCN4CC5CC4CN5)C(=O)Nc4ccc(F)c(C(F)(F)F)c4)C2C3)s1 (some centres unmarked) [Example 17] | 0% | 14%
